Assay results taken from EP4810508A1, “ARABINOSE DERIVATIVE COMPOUND, AND COMPOSITION COMPRISING SAME FOR PREVENTING OR TREATING DEGENERATIVE BRAIN DISEASES” (Digmbio. Inc., priority 2023, dated 2025).
Read-outs that look alike come from different tables or passages of the source.

Columns and labels:
HRE/Luc/HEK293 cells = test: HRE (Hypoxia Response Element) luciferase assay; type: cell-based, human; conditions: for fold induction at 10 µM / fold induction at 100 µM: Homo sapiens; for HRE assay: increase in HRE expression levels by the test substance relative to the vehicle in HRE/Luc/HEK293 cells
Outline: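 HRE-luciferase HEK293 cells in MEM/10% FBS pretreated with compound 6 h, then held under hypoxia (0.1% O2) 18 h; luminescence read after lysis. Scored as fold increase over vehicle, with twofold threshold at 100, 10 or 1 µM.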

male ICR mice [1] = test: Scopolamine-induced cognitive impairment model: Y-maze test; type: in vivo; conditions: for percent recovery of cognitive function (Y-maze) at 50 mg/kg: Mus musculus, po, 168 h; for in vivo Y-maze (%): spontaneous alternation, scopolamine 1 mg/kg i.p., compounds 50 mg/kg oral for 7 days, donepezil 5 mg/kg (avg.)
Text: (§1) A memory loss rodent animal model induced by scopolamine intraperitoneal administration is used, and an evaluation method for memory uses a Y-maze test and a passive avoidance test (PAT). Scopolamine is a representative experimental model showing an impairment of cognitive function similar to AD patients by blocking neurotransmitters when administered to an animal as an antagonist of a muscarinic acetylcholine receptor, and as a cognitive function evaluation technique, a Y-maze test and a passive avoidance experiment, which are general and representative methods, were used, and in order to objectify the efficacy levels of the compounds, a group administered with donepezil (Aricept, Eisa) as a positive control material was separately provided to compare the efficacy levels of the compounds.
(§2) In order to evaluate cognitive function, 5-week-old male ICR mice were used, the compounds to be evaluated were prepared at a dose of 50 mg/kg/ml and repeatedly orally administered at a predetermined time for 7 days, and the positive control material was carried out at 5 mg/kg/ml. After the last administration, after 30 minutes of intraperitoneal administration of 1 mg/kg/2 ml of scopolamine, a Y-maze test and a passive avoidance test, which are cognitive function evaluations, were performed.
The Y-maze test is a method for evaluating the ability to sequentially act as an experiment for measuring short-term memory. The measurement equipment is composed of three branches, each branch has a length of 42 cm, a width of 3 cm, and a height of 12 cm, and an angle at which three branches are folded is 120°. Experimental animals are put into each branch for 8 minutes, and the number of times of entering the branches to the tail of the experimental animal and the case of being sequentially received in each branch are scored (actual alternation). The alternation behavior is defined as entering not to overlap all three, and is calculated by the following equation. [formula]

male ICR mice [2] = test: Scopolamine-induced cognitive impairment model: passive avoidance test (PAT); type: in vivo; conditions: for percent recovery of memory in passive avoidance test (normal group = 100, scopolamine control = 0) at 50 mg/kg: Mus musculus, po, 168 h, read-out: in vivo(effect) PAT (%); for in vivo PAT: time staying in bright room (step-through latency), scopolamine 1 mg/kg i.p., compounds 50 mg/kg oral for 7 days, donepezil 5 mg/kg (avg.); for cognitive function recovery compared to normal animals, passive avoidance test (effect %): compounds 50 mg/kg, donepezil 5 mg/kg, orally for 7 days, scopolamine 1 mg/kg intraperitoneal
Text: as §1, §2
In addition, the passive avoidance test was conducted using an avoidance learning box (Jeondo B&P, Korea, Seoul), and the avoidance learning box is divided into a dark room and a bright room, and when a laboratory animal is put into a bright room, the subject goes beyond the dark room. At the moment, an electric shock of 0.5 mA is applied for 5 seconds, and when the next day experimental animal is put back into a bright room, an electric shock in a dark room is memorized and stay in a bright room. In this case, a step-through latency is measured to evaluate memory. The efficacy of the compounds of the present invention against the normal group and the control group in the Y-maze test and the passive avoidance test was described in the following Table 3 (Scopolamine-induced cognitive impairment model result).

[3] = HEK293, fold increase of HRE expression, hypoxic conditions (O2 0.1%) 18 hours, Table 2, read-out: HRE-increasing 10uM
[4] = HEK293, fold increase of HRE expression, hypoxic conditions (O2 0.1%) 18 hours, Table 2, read-out: HRE-increasing 100uM
[5] = read-out: cognitive function recovery compared to normal animals, Y-maze experiment (effect %)
[6] = read-out: in vivo(effect) Y-maze (%)

Row | SMILES | fold induction at 10 µM (HRE/Luc/HEK293 cells; [3]) | fold induction at 100 µM (HRE/Luc/HEK293 cells; [4]) | percent recovery of cognitive function (Y-maze) at 50 mg/kg (male ICR mice [1]; [5]) [%] | percent recovery of cognitive function (Y-maze) at 50 mg/kg (male ICR mice [1]; [6]) [%] | in vivo Y-maze (%) (male ICR mice [1]) | percent recovery of memory in passive avoidance test (normal group = 100, scopolamine control = 0) at 50 mg/kg (male ICR mice [2]) [%] | in vivo PAT (male ICR mice [2]) [s] | HRE assay (HRE/Luc/HEK293 cells) | cognitive function recovery compared to normal animals, passive avoidance test (effect %) (male ICR mice [2]) [%] | HRE expression (HRE/Luc/HEK293 cells; concentration of 10 µM) | fold induction at 10 µM (HRE/Luc/HEK293 cells; HEK293, 18 h, Table 2 (Examples 37-74, 52), read-out: HKt-increasing 10uM) | fold induction at 100 µM (HRE/Luc/HEK293 cells; HEK293, 18 h, Table 2 (Examples 37-74, 52), read-out: HKt-increasing 100uM)
1 | O[C@@H]1[C@@H](O)[C@@H](Oc2ccc(CC3CCCCC3)cc2)OC[C@@H]1O [Example 22, (2R,3R,4S,5S)-2-(4-(cyclohexylmethyl)phenoxy)tetrahydro-2H-pyran-3,4,5-triol] | 2.5 | 2.8 | ≥ 50 | 56 | 65 | 36 | 145 | – | – | – | – | –
2 | COc1ccc(Cc2ccc(O[C@H]3O[C@@H](C)[C@@H](O)[C@@H](O)[C@@H]3O)cc2)cc1 [Example 6, (2R,3S,4R,5S,6S)-2-(4-(4-methoxybenzyl)phenoxy)-6-methyltetrahydro-2H-pyran-3,4,5-triol] | < 1 | 1.5 | – | -6 | 53 | 10 | 109 | • | – | – | – | –
3 | COc1ccc(Cc2ccc(O[C@H]3OC[C@H](O)[C@H](O)[C@H]3O)cc2)cc1 [Example 3, (2R,3R,4S,5S)-2-(4-(4-methoxybenzyl)phenoxy)tetrahydro-2H-pyran-3,4,5-triol] | 1.5 | 3.1 | 59 | 59 | 61 | 91 | 206 | •• | 91 | – | – | –
4 | COc1ccc(C(C)(C)c2ccc(O[C@H]3OC[C@H](O)[C@H](O)[C@H]3O)cc2)cc1 [Example 30, (2R,3R,4S,5S)-2-(4-(2-(4-methoxyphenyl)propan-2-yl)phenoxy)tetrahydro-2H-pyran-3,4,5-triol] | 1.1 | 1.4 | – | 45 | 63 | 60 | 194 | – | ≥ 50 | – | – | –
5 | CCOc1ccc(C(C)(C)c2ccc(O[C@H]3OC[C@H](O)[C@H](O)[C@H]3O)cc2)cc1 [Example 31, (2R,3R,4S,5S)-2-(4-(2-(4-ethoxyphenyl)propan-2-yl)phenoxy)tetrahydro-2H-pyran-3,4,5-triol] | 1.1 | 1.6 | ≥ 50 | 71 | 68 | 65 | 204 | – | ≥ 50 | – | – | –
6 | O[C@@H]1[C@@H](O)[C@@H](Oc2ccc(Cc3ccccc3)cc2)OC[C@@H]1O [Example 1, (2R,3R,4S,5S)-2-(4-benzylphenoxy)tetrahydro-2H-pyran-3,4,5-triol] | 1.2 | 2.2 | – | 38 | 64 | 35 | 133 | •• | – | – | – | –
7 | O[C@@H]1[C@@H](O)[C@@H](Oc2ccc(Cc3ccc(Oc4ccccc4)cc3)cc2)OC[C@@H]1O [Example 9, (2R,3R,4S,5S)-2-(4-(4-phenoxybenzyl)phenoxy) tetrahydro-2H-pyran-3,4,5-triol] | 1.2 | < 1 | – | 9 | 57 | 32 | 127 | • | – | – | – | –
8 | Cc1ccc(Cc2ccc(O[C@H]3OC[C@H](O)[C@H](O)[C@H]3O)cc2)cc1 [Example 2, (2R,3R,4S,5S)-2-(4-(4-methylbenzyl)phenoxy) tetrahydro-2H-pyran-3,4,5-triol] | 2.5 | 3.2 | ≥ 50 | 51 | 63 | 25 | 134 | ••• | – | – | – | –
9 | O[C@@H]1[C@@H](O)[C@@H](Oc2ccc(Cc3ccsc3)cc2)OC[C@@H]1O [Example 23, (2R,3R,4S,5S)-2-(4-(thiophen-3-ylmethyl)phenoxy)tetrahydro-2H-pyran-3,4,5-triol] | 1.6 | 2.7 | – | 41 | 59 | 22 | 87 | – | – | – | – | –
10 | CC(C)c1ccc(Oc2ccc(O[C@H]3OC[C@H](O)[C@H](O)[C@H]3O)cc2)cc1 [Example 35, (2R,3R,4S,5S)-2-(4-(4-isopropylphenoxy)phenoxy)tetrahydro-2H-pyran-3,4,5-triol] | 3.7 | < 1 | – | 41 | 59 | 45 | 141 | – | – | more than threefold | – | –
11 | COc1cccc(Cc2ccc(O[C@H]3OC[C@H](O)[C@H](O)[C@H]3O)cc2)c1 [Example 15, (2R,3R,4S,5S)-2-(4-(3-methoxybenzyl)phenoxy)tetrahydro-2H-pyran-3,4,5-triol] | 1.1 | 2.2 | ≥ 50 | 66 | 66 | 30 | 142 | – | – | – | – | –
12 | CC(C)c1ccc(Oc2ccc(O[C@H]3OC[C@@H](O)[C@H](O)[C@H]3O)cc2)cc1 [Example 56, (2R,3R,4S,5R)-2-(4-(4-isopropylphenoxy)phenoxy)tetrahydro-2H-pyran-3,4,5-triol] | – | – | ≥ 50 | 64 | 61.8 | 81 | 217.3 | – | ≥ 50 | – | 2.7 | 1.4
13 | O[C@@H]1[C@@H](O)[C@@H](Oc2ccc(Cc3ccc(Cl)cc3)cc2)OC[C@@H]1O [Example 14, (2R,3R,4S,5S)-2-(4-(4-chlorobenzyl)phenoxy)tetrahydro-2H-pyran-3,4,5-triol] | 1.9 | 2.5 | – | 7 | 57 | 33 | 129 | •• | – | – | – | –
14 | O[C@@H]1[C@@H](O)[C@@H](Oc2ccc(Cc3ccc(F)cc3)cc2)OC[C@@H]1O [Example 13, (2R,3R,4S,5S)-2-(4-(4-fluorobenzyl)phenoxy)tetrahydro-2H-pyran-3,4,5-triol] | 1.4 | 2.4 | – | 17 | 57 | 37 | 149 | •• | – | – | – | –
